Measured values from article PMC12203697, “Bioactive constituents from the edible seaweed Halymenia hawaiiana (Rhodophyta)” (Pharmaceutical Biology, 2025).
Values after ≈ are worked out from the molar mass of the structure shown.

Legend:
[1] = Ferric-reducing antioxidant power (FRAP) assay
Protocol: The FRAP assay was used to evaluate antioxidant activity based on the ability of the sample to reduce Fe^3+-TPTZ (2,4,6-tris(2-pyridyl)-S-triazine) to Fe^2+-TPTZ (Benzie and Strain [1996]). This reduction results in a color change from colorless to blue. The absorbance was measured at 593 nm using a Microplate Reader (BioTek ELx800 Instruments Inc. Winooski, Vermont, USA) with the Gen 5 software for FRAP value calculations. A ferrous sulfate heptahydrate (FeSO4 · 7H2O) (Cat. No. 215422, Sigma-Aldrich, USA) standard curve, ranging from 1000 µM to 50 µM, was prepared for the assay. The FRAP reagent consists of 300 mM sodium acetate buffer (pH 3.6) (Cat. No. 90358, Sigma-Aldrich, USA), 10 mM TPTZ solution (Cat. No. T1253, Sigma-Aldrich, USA), and 20 mM ferric (III) chloride hexahydrate (FeCl3 · 6H2O) (Cat. No. 236489, Sigma-Aldrich, USA) in a 10:1:1 ratio, respectively, and heated to 37 °C for ten minutes before use. A blank was measured at 593 nm with 150 µL FRAP reagent added to each well of a 96-well microtiter plate. Samples (20 µL of each sample) (1, 0.5, 0.25 mg/mL) and ascorbic acid (Sigma-Aldrich, Cat. No. A4403) positive control (1 mg/mL) were added in triplicates. Reducing capacity was expressed by FRAP values in an µM FeSO4/µg sample unit.

[2] = tested on: E. coli; assay: Antibacterial MIC, broth microdilution with resazurin; format: cell-based; conditions: Escherichia coli, Gram-negative
Description: (§1) Methicillin-resistant Staphylococcus aureus (MRSA), methicillin-susceptible S. aureus (MSSA), and Gram-negative clinical isolates of bacteria [Escherichia coli (9637) and Serratia marcescens ATCC 13880] were used for this study. […] MSSA HBP10, MSSA LUU7, MSSA R113, S. aureus ONE9, and MSSA POB2 were isolated in Hawaiʻi (Gerken et al. [2021]). Mueller Hinton Broth (MHB, GTIN:00382902979630, Becton, Dickinson and Company, Franklin Lakes, NJ, USA) and Mueller Hinton Agar (MHA, GTIN:00382902252504, Becton, Dickinson and Company, Franklin Lakes, NJ, USA,) were used for bacterial inoculation. MRSA was a pathogen strain causing hospital-acquired infections in 1982. This strain easily acquires resistance to antibiotics, such as vancomycin. MSSA strains isolated from the Island of Hawaiʻi included: Honolʻii Beach Park (HBP10) carry the genes erm(C), aph(3′)-III, and mecA, which provide resistance to macrolide, aminoglycoside, and beta-lactam antibiotics, respectively; Wailuku River (LUU7) which contains the blaZ gene (beta-lactam resistance) (Gerken et al. [2021]). Richardson’s Beach Park (R113) and Onekahakaha (ONE9) which is known for its virulence factors (hlgA, hlgB, hlgC, lukD, and lukE).
(§2) The minimum inhibitory concentrations (MICs) were determined using a two-fold serial dilution method with MHB following the recommendations of the Clinical and Laboratory Standards Institute (CLSI [2012]; Elshikh et al. [2016]). In brief, serial two-fold dilutions of the samples in DMSO were mixed with MHB in a 96-well microplate. Then, 50 µL of bacteria suspension was added to each well, resulting in a final concentration of 1 × 10^4 colony-forming units/well. The plates were incubated at 35–37 °C for 18–24 hr. After incubation, 10 µL of 0.18% resazurin (Cat. No. R7017, Sigma-Aldrich, USA) was added to each well (Elshikh et al. [2016]). The MIC was assessed within 2–3 hr after the addition of resazurin. All antimicrobial assays were performed in triplicate, using vancomycin (Cat. No. SBR00001, Sigma-Aldrich, USA) and gentamicin (Cat. No. G1397, Sigma-Aldrich, USA) as standard controls.

[3] = tested on: MRSA USA300; assay: as above; format: cell-based; conditions: Staphylococcus aureus; MRSA USA300, Gram-positive; read-out: MIC
Description: as §1, §2

[4] = tested on: MSSA LUU7; assay: as above; format: cell-based; conditions: Staphylococcus aureus; MSSA LUU7, Gram-positive; read-out: MIC
Description: as §1, §2

[5] = tested on: MSSA R113; assay: as above; format: cell-based; conditions: Staphylococcus aureus; MSSA R113, Gram-positive; read-out: MIC
Description: as §1, §2

[6] = tested on: S. aureus 8325-4; assay: as above; format: cell-based; conditions: Staphylococcus aureus, 83254; S. aureus 8325-4, Gram-positive; read-out: MIC
Description: as §1, §2

[7] = tested on: S. aureus ONE9; assay: as above; format: cell-based; conditions: Staphylococcus aureus; S. aureus ONE9, Gram-positive; read-out: MIC
Description: as §1, §2

SMILES | FRAP ([1]; µM FeSO4/µg sample) | MIC [2] | MIC [3] | MIC [4] | MIC [5] | MIC [6] | MIC [7] | FRAP ([1]; FeSO4 standard curve)
Nc1ccn([C@H]2C[C@H](O)[C@@H](CO)O2)c(=O)n1 [Compound 1, deoxycytidine] | 0.41 ± 0.03 µM/µg | 128 µg/mL (≈ 563 µM) | 128 µg/mL (≈ 563 µM) | 128 µg/mL (≈ 563 µM) | 128 µg/mL (≈ 563 µM) | 128 µg/mL (≈ 563 µM) | 128 µg/mL (≈ 563 µM) | 
CC(C)CCC[C@@H](C)[C@H]1CC[C@H]2[C@@H]3CC=C4C[C@@H](O)CC[C@]4(C)[C@H]3CC[C@]12C [Compound 9, cholesterol] |  | 128 µg/mL (≈ 331 µM) | 128 µg/mL (≈ 331 µM) | 128 µg/mL (≈ 331 µM) | 128 µg/mL (≈ 331 µM) | 128 µg/mL (≈ 331 µM) | 128 µg/mL (≈ 331 µM) | 
CC(C)CCC[C@@H](C)[C@H]1CCC2[C@@]34C=C[C@]5(C[C@@H](O)CC[C@]5(C)C3CC[C@@]21C)OO4 (stereo partly drawn) [Compound 10, 7-dehydrochoresterol peroxide] | 2.55 ± 0.02 µM/µg | 128 µg/mL (≈ 307 µM) | 128 µg/mL (≈ 307 µM) | 128 µg/mL (≈ 307 µM) | 128 µg/mL (≈ 307 µM) | 128 µg/mL (≈ 307 µM) | 128 µg/mL (≈ 307 µM) | 204.07 µM
CC(C)CCC[C@@H](C)[C@H]1CCC2[C@]1(C)CC=C1[C@]23C=C[C@]2(C[C@@H](O)CC[C@]12C)OO3 (stereo partly drawn) [Compound 11, (3β-5α-8α)5,8-epidioxycholesta-6,9(1)-diene-3-ol] |  | 128 µg/mL (≈ 309 µM) | 128 µg/mL (≈ 309 µM) | 128 µg/mL (≈ 309 µM) | 128 µg/mL (≈ 309 µM) | 128 µg/mL (≈ 309 µM) | 128 µg/mL (≈ 309 µM) | 
